± gives the expanded uncertainty stated by the source.
Assay: cn = amount concentration of the nth substance listed, in mol/dm3
Conditions: 303 K, 101 kPa, Liquid; for viscosity: Capillary tube (Ostwald / Ubbelohde) method; for speed of sound: Linear variable-path acoustic interferometer; for mass density: Pycnometric method

O=C1C(Cl)=C(Cl)C(=O)C(Cl)=C1Cl [2,3,5,6-tetrachloro-p-benzoquinone] + C[S+](C)[O-]
Conditions | mass density [kg/m3] | speed of sound [m/s] | viscosity [mPa·s]
c1 = 0.002 | 1091.4 ± 0.8 | 1472.4 ± 3.2 | 1.756 ± 0.017
c1 = 0.004 | 1091.6 ± 0.8 | 1472.6 ± 3.2 | 1.757 ± 0.017
c1 = 0.006 | 1091.9 ± 0.8 | 1471.9 ± 3.2 | 1.758 ± 0.017
c1 = 0.008 | 1091.9 ± 0.8 | 1471.3 ± 3.2 | 1.773 ± 0.017
c1 = 0.01 | 1092.1 ± 0.8 | 1471.6 ± 3.2 | 1.769 ± 0.017
c1 = 0.012 | 1091.6 ± 0.8 | 1470.3 ± 3.2 | 1.767 ± 0.017
c1 = 0.014 | 1091.4 ± 0.8 | 1467.1 ± 3.2 | 1.76 ± 0.017
c1 = 0.016 | 1091.2 ± 0.8 | 1468.3 ± 3.2 | 1.756 ± 0.017
c1 = 0.018 | 1091.7 ± 0.8 | 1468.5 ± 3.2 | 1.767 ± 0.017
c1 = 0.02 | 1091.7 ± 0.8 | 1468.7 ± 3.2 | 1.769 ± 0.017

Cc1ccccc1N [2-methylaniline] + C[S+](C)[O-]
Conditions | mass density [kg/m3] | speed of sound [m/s] | viscosity [mPa·s]
c1 = 0.002 | 1090.8 ± 0.8 | 1471.4 ± 3.2 | 1.713 ± 0.016
c1 = 0.004 | 1090.4 ± 0.8 | 1471.8 ± 3.2 | 1.713 ± 0.016
c1 = 0.006 | 1090.5 ± 0.8 | 1472 ± 3.2 | 1.723 ± 0.016
c1 = 0.008 | 1089.6 ± 0.9 | 1471.2 ± 3.2 | 1.718 ± 0.016
c1 = 0.01 | 1089.5 ± 0.8 | 1472.6 ± 3.2 | 1.72 ± 0.016
c1 = 0.012 | 1090 ± 0.8 | 1473.5 ± 3.2 | 1.723 ± 0.016
c1 = 0.014 | 1089.7 ± 0.8 | 1472.5 ± 3.2 | 1.718 ± 0.016
c1 = 0.016 | 1089.8 ± 0.8 | 1471.9 ± 3.2 | 1.724 ± 0.016
c1 = 0.018 | 1089.4 ± 0.8 | 1473 ± 3.2 | 1.733 ± 0.016
c1 = 0.02 | 1090.3 ± 0.9 | 1473.9 ± 3.2 | 1.723 ± 0.016

CN(C)c1ccccc1 [N,N-dimethylaniline] + C[S+](C)[O-]
Conditions | mass density [kg/m3] | speed of sound [m/s] | viscosity [mPa·s]
c1 = 0.002 | 1090.7 ± 0.8 | 1471.9 ± 3.2 | 1.734 ± 0.016
c1 = 0.004 | 1090.4 ± 0.8 | 1472.5 ± 3.2 | 1.725 ± 0.016
c1 = 0.006 | 1090.7 ± 0.8 | 1471.9 ± 3.2 | 1.721 ± 0.016
c1 = 0.008 | 1090.6 ± 0.8 | 1472.6 ± 3.2 | 1.731 ± 0.016
c1 = 0.01 | 1089.9 ± 0.8 | 1471.8 ± 3.2 | 1.747 ± 0.017
c1 = 0.012 | 1089.6 ± 0.8 | 1472.1 ± 3.2 | 1.724 ± 0.016
c1 = 0.014 | 1090.1 ± 0.8 | 1472.3 ± 3.2 | 1.73 ± 0.016
c1 = 0.016 | 1089.8 ± 0.8 | 1471.6 ± 3.2 | 1.731 ± 0.016
c1 = 0.018 | 1090.3 ± 0.8 | 1472.2 ± 3.2 | 1.733 ± 0.016
c1 = 0.02 | 1090.2 ± 0.8 | 1472 ± 3.2 | 1.732 ± 0.016

CNc1ccccc1 [N-methylaniline] + C[S+](C)[O-]
Conditions | mass density [kg/m3] | speed of sound [m/s] | viscosity [mPa·s]
c1 = 0.002 | 1090.8 ± 0.8 | 1471.6 ± 3.2 | 1.713 ± 0.016
c1 = 0.004 | 1090.4 ± 0.8 | 1471.8 ± 3.2 | 1.713 ± 0.016
c1 = 0.006 | 1090 ± 0.8 | 1472 ± 3.2 | 1.723 ± 0.016
c1 = 0.008 | 1089.6 ± 0.8 | 1471.2 ± 3.2 | 1.718 ± 0.016
c1 = 0.01 | 1089.8 ± 0.8 | 1471.7 ± 3.2 | 1.724 ± 0.016
c1 = 0.012 | 1090 ± 0.8 | 1473.5 ± 3.2 | 1.733 ± 0.016
c1 = 0.014 | 1089.7 ± 0.8 | 1472.5 ± 3.2 | 1.723 ± 0.016
c1 = 0.016 | 1089.8 ± 0.8 | 1471.9 ± 3.2 | 1.718 ± 0.016
c1 = 0.018 | 1089.8 ± 0.8 | 1473 ± 3.2 | 1.718 ± 0.016
c1 = 0.02 | 1090.1 ± 0.8 | 1473.9 ± 3.2 | 1.72 ± 0.016

Nc1ccccc1 [aniline] + C[S+](C)[O-]
Conditions | mass density [kg/m3] | speed of sound [m/s] | viscosity [mPa·s]
c1 = 0.002 | 1090.4 ± 0.8 | 1471.6 ± 3.2 | 1.789 ± 0.017
c1 = 0.004 | 1090.6 ± 0.8 | 1473.9 ± 3.2 | 1.798 ± 0.017
c1 = 0.006 | 1090.7 ± 0.8 | 1473.4 ± 3.2 | 1.79 ± 0.017
c1 = 0.008 | 1090.2 ± 0.8 | 1472.7 ± 3.2 | 1.79 ± 0.017
c1 = 0.01 | 1090.6 ± 0.8 | 1474.1 ± 3.2 | 1.806 ± 0.017
c1 = 0.012 | 1090.4 ± 0.8 | 1473.7 ± 3.2 | 1.777 ± 0.017
c1 = 0.014 | 1090.5 ± 0.8 | 1472.7 ± 3.2 | 1.802 ± 0.017
c1 = 0.016 | 1090.3 ± 0.8 | 1472.8 ± 3.2 | 1.819 ± 0.018
c1 = 0.018 | 1090.4 ± 0.8 | 1473 ± 3.2 | 1.79 ± 0.017
c1 = 0.02 | 1090.6 ± 0.8 | 1474 ± 3.2 | 1.792 ± 0.017

— the NIST ThermoML archive (doi:10.1016/j.fluid.2013.09.026)
